Assay results from PubChem BioAssay (NCI).
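Compound exposure: 48 hours, 5 concentrations, 96-well plates. Abbreviation: GI50, concentration required for 50% inhibition of growth. TGI is the concentration that stops growth completely.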

What was measured:
Experiment in all cases: DTP human tumour cell line panel, 48 h
HL-60(TB) leukemia = test system: HL-60(TB) leukemia
COLO 205 colon = test system: COLO 205 colon
NCI-H23 lung = test system: NCI-H23 lung
MOLT-4 leukemia = test system: MOLT-4 leukemia
UACC-62 melanoma = test system: UACC-62 melanoma
ACHN renal = test system: ACHN renal
SN12C renal = test system: SN12C renal
SW-620 colon = test system: SW-620 colon
OVCAR-4 ovarian = test system: OVCAR-4 ovarian
OVCAR-8 ovarian = test system: OVCAR-8 ovarian
MALME-3M melanoma = test system: MALME-3M melanoma
KM12 colon = test system: KM12 colon
HS 578T breast = test system: HS 578T breast
M14 melanoma = test system: M14 melanoma
SNB-75 CNS = test system: SNB-75 CNS
HCC-2998 colon = test system: HCC-2998 colon
SF-295 CNS = test system: SF-295 CNS
RXF 393 renal = test system: RXF 393 renal
SR leukemia = test system: SR leukemia
SNB-19 CNS = test system: SNB-19 CNS
OVCAR-3 ovarian = test system: OVCAR-3 ovarian
A498 renal = test system: A498 renal
SK-MEL-5 melanoma = test system: SK-MEL-5 melanoma
HCT-116 colon = test system: HCT-116 colon
MDA-MB-435 = test system: MDA-MB-435
PC-3 prostate = test system: PC-3 prostate
OVCAR-5 ovarian = test system: OVCAR-5 ovarian
MDA-MB-231 breast = test system: MDA-MB-231 breast
NCI/ADR-RES ovarian = test system: NCI/ADR-RES ovarian
A549 NSCLC = test system: A549 NSCLC
DU-145 prostate = test system: DU-145 prostate
HCT-15 colon = test system: HCT-15 colon
CCRF-CEM leukemia = test system: CCRF-CEM leukemia
CAKI-1 renal = test system: CAKI-1 renal
UACC-257 melanoma = test system: UACC-257 melanoma
SK-MEL-2 melanoma = test system: SK-MEL-2 melanoma
SK-MEL-28 melanoma = test system: SK-MEL-28 melanoma
UO-31 renal = test system: UO-31 renal
SK-OV-3 ovarian = test system: SK-OV-3 ovarian
NCI-H460 lung = test system: NCI-H460 lung
HOP-62 NSCLC = test system: HOP-62 NSCLC
BT-549 breast = test system: BT-549 breast
RPMI-8226 leukemia = test system: RPMI-8226 leukemia
IGROV1 ovarian = test system: IGROV1 ovarian
NCI-H522 lung = test system: NCI-H522 lung
MCF7 breast = test system: MCF7 breast
K-562 leukemia = test system: K-562 leukemia
TK-10 renal = test system: TK-10 renal
HOP-92 NSCLC = test system: HOP-92 NSCLC
HT29 colon = test system: HT29 colon
T-47D breast = test system: T-47D breast
786-0 renal = test system: 786-0 renal
LOX IMVI melanoma = test system: LOX IMVI melanoma
SF-268 CNS = test system: SF-268 CNS
NCI-H226 lung = test system: NCI-H226 lung
U251 CNS = test system: U251 CNS
EKVX NSCLC = test system: EKVX NSCLC

Compound: Cc1ccc(/C=C2\COc3ccc(O)c(O)c3C2=O)cc1
- GI50 (HL-60(TB) leukemia): 421 nM
- TGI (HL-60(TB) leukemia): 2140 nM
- GI50 (COLO 205 colon): 2000 nM
- TGI (COLO 205 colon): 3.95 µM
- GI50 (NCI-H23 lung): 1450 nM
- TGI (NCI-H23 lung): 3.8 µM
- GI50 (MOLT-4 leukemia): 403 nM
- TGI (MOLT-4 leukemia): > 29.6 µM
- GI50 (UACC-62 melanoma): 407 nM
- TGI (UACC-62 melanoma): 1650 nM
- GI50 (ACHN renal): 639 nM
- TGI (ACHN renal): 2000 nM
- GI50 (SN12C renal): 370 nM
- TGI (SN12C renal): 2330 nM
- GI50 (SW-620 colon): 854 nM
- TGI (SW-620 colon): 3.11 µM
- GI50 (OVCAR-4 ovarian): 1470 nM
- TGI (OVCAR-4 ovarian): 4.96 µM
- GI50 (OVCAR-8 ovarian): 404 nM
- TGI (OVCAR-8 ovarian): > 100 µM
- GI50 (MALME-3M melanoma): 909 nM
- TGI (MALME-3M melanoma): 3.15 µM
- GI50 (KM12 colon): 838 nM
- TGI (KM12 colon): 3 µM
- GI50 (HS 578T breast): 362 nM
- TGI (HS 578T breast): > 26.4 µM
- GI50 (M14 melanoma): 292 nM
- TGI (M14 melanoma): 1060 nM
- GI50 (SNB-75 CNS): 322 nM
- TGI (SNB-75 CNS): 3.48 µM
- GI50 (HCC-2998 colon): 1690 nM
- TGI (HCC-2998 colon): 3.28 µM
- GI50 (SF-295 CNS): 2040 nM
- TGI (SF-295 CNS): 9.64 µM
- GI50 (RXF 393 renal): 372 nM
- TGI (RXF 393 renal): 1160 nM
- GI50 (SR leukemia): 358 nM
- TGI (SR leukemia): > 100 µM
- GI50 (SNB-19 CNS): 1320 nM
- TGI (SNB-19 CNS): 3.27 µM
- GI50 (OVCAR-3 ovarian): 386 nM
- TGI (OVCAR-3 ovarian): 1400 nM
- GI50 (A498 renal): 249 nM
- TGI (A498 renal): 1950 nM
- GI50 (SK-MEL-5 melanoma): 320 nM
- TGI (SK-MEL-5 melanoma): 1260 nM
- GI50 (HCT-116 colon): 1280 nM
- TGI (HCT-116 colon): 2930 nM
- GI50 (MDA-MB-435): 233 nM
- TGI (MDA-MB-435): 764 nM
- GI50 (PC-3 prostate): 505 nM
- TGI (PC-3 prostate): 3.74 µM
- GI50 (OVCAR-5 ovarian): 1750 nM
- TGI (OVCAR-5 ovarian): 3.98 µM
- GI50 (MDA-MB-231 breast): 340 nM
- TGI (MDA-MB-231 breast): 3.78 µM
- GI50 (NCI/ADR-RES ovarian): 343 nM
- TGI (NCI/ADR-RES ovarian): > 100 µM
- GI50 (A549 NSCLC): 2330 nM
- TGI (A549 NSCLC): 11.5 µM
- GI50 (DU-145 prostate): 394 nM
- TGI (DU-145 prostate): 1710 nM
- GI50 (HCT-15 colon): 352 nM
- TGI (HCT-15 colon): 6.41 µM
- GI50 (CCRF-CEM leukemia): 265 nM
- TGI (CCRF-CEM leukemia): 1480 nM
- GI50 (CAKI-1 renal): 765 nM
- TGI (CAKI-1 renal): 2200 nM
- GI50 (UACC-257 melanoma): 1550 nM
- TGI (UACC-257 melanoma): 5.38 µM
- GI50 (SK-MEL-2 melanoma): 555 nM
- TGI (SK-MEL-2 melanoma): 3.65 µM
- GI50 (SK-MEL-28 melanoma): 933 nM
- TGI (SK-MEL-28 melanoma): 2830 nM
- GI50 (UO-31 renal): 465 nM
- TGI (UO-31 renal): 1800 nM
- GI50 (SK-OV-3 ovarian): 395 nM
- TGI (SK-OV-3 ovarian): 35.1 µM
- GI50 (NCI-H460 lung): 1840 nM
- TGI (NCI-H460 lung): 5 µM
- GI50 (HOP-62 NSCLC): 1440 nM
- TGI (HOP-62 NSCLC): 6.64 µM
- GI50 (BT-549 breast): 585 nM
- TGI (BT-549 breast): 2640 nM
- GI50 (RPMI-8226 leukemia): 252 nM
- TGI (RPMI-8226 leukemia): 818 nM
- GI50 (IGROV1 ovarian): 559 nM
- TGI (IGROV1 ovarian): 2620 nM
- GI50 (NCI-H522 lung): 185 nM
- TGI (NCI-H522 lung): 461 nM
- GI50 (MCF7 breast): 375 nM
- TGI (MCF7 breast): 9.76 µM
- GI50 (K-562 leukemia): 329 nM
- TGI (K-562 leukemia): > 100 µM
- GI50 (TK-10 renal): 1470 nM
- TGI (TK-10 renal): 3.44 µM
- GI50 (HOP-92 NSCLC): 887 nM
- TGI (HOP-92 NSCLC): 5.77 µM
- GI50 (HT29 colon): 2780 nM
- TGI (HT29 colon): 9.05 µM
- GI50 (T-47D breast): 951 nM
- TGI (T-47D breast): 6.94 µM
- GI50 (786-0 renal): 555 nM
- TGI (786-0 renal): 2490 nM
- GI50 (LOX IMVI melanoma): 329 nM
- TGI (LOX IMVI melanoma): 1340 nM
- GI50 (SF-268 CNS): 1120 nM
- TGI (SF-268 CNS): 3.35 µM
- GI50 (NCI-H226 lung): 2130 nM
- TGI (NCI-H226 lung): 6.24 µM
- GI50 (U251 CNS): 922 nM
- TGI (U251 CNS): 2290 nM
- GI50 (EKVX NSCLC): 1280 nM
- TGI (EKVX NSCLC): 4.14 µM
